In general, Papp B→A refers to the apparent permeability from the basolateral to the apical side of a cell layer. The Papp A→B is the apparent permeability from the apical to the basolateral side of a cell layer.

The source of these data is article PMC12085399, “Quantitative in vitro-to-in vivo extrapolation of human adrenergic and trace amine-associated receptor 1 potencies of pre-workout supplement ingredients using physiologically based kinetic modelling-based reverse dosimetry” (Archives of Toxicology, 2025).

The nature of one series: in vitro. As to conditions: human; for Papp B→A at 60 min, 10 µM: Caco-2, pH 7.4; for recovery at 60 min, 10 µM: after 60 min, mean ± SD. Here is the method:
(§1) Caco-2 cells (ATCC, Manassas, VA, USA; passage 30–44) were cultured in DMEM (Gibco, New York, USA) containing 4.5 g/L d-glucose, 4 mM L-glutamine and supplemented with 10% FBS (Gibco, Grand Island, NY, USA), 1% minimal essential medium non-essential amino acids (Gibco, Paisley, UK), 100 units/mL penicillin and 100 µg/mL streptomycin (Gibco, Grand Island, NY, USA). Cells were seeded at a density of 4.0 × 10^4 cells/cm^2 on polyester transwell insert membranes (12 mm insert, 0.4 µm pore size; Corning incorporated, Kennebunk, ME, USA). Cells were maintained in a humidified incubator with 5% CO2 at 37 °C for 21 or 22 days in 0.5 mL and 1.5 mL medium in the apical and basolateral compartments, respectively. The medium was refreshed every two or three days and always one day before the permeability assay.
(§2) On the day of the experiment, cells were washed twice with HBSS without phenol red (pH 7.4; Sigma-Aldrich, Steinheim, Germany) supplemented with 0.35 g/L sodium bicarbonate and 25 mM HEPES and they were equilibrated in this supplemented HBSS for 15 min in a humidified incubator with 5% CO2 at 37 °C. […] These stocks were diluted to a final concentration of 10 µM in pre-warmed supplemented HBSS (final DMSO level = 0.1%). After 15 min, the transepithelial electrical resistance (TEER) was measured with an Epithelial Voltohmmeter (World Precision Instruments, Sarasota, USA). Compound transport was studied in two directions: from the apical to the basolateral compartment (A-B) and from the basolateral to the apical compartment (B-A). For A-B experiments, 450 µL of the compound (10 µM) was added to the apical side and 1200 µL supplemented HBSS was added to the basolateral side. A sample of 50 µL was removed immediately from the apical compartment at time point zero. After 15 and 30 min, samples were taken from the basolateral compartment. Cells were kept in the incubator during the experiment. After 60 min, medium from both compartments was sampled, cells were washed twice with supplemented HBSS and were maintained in the incubator. After 15 min, the TEER was measured again to check for epithelial barrier damage due to compound exposure. After this, cells were lysed in RIPA buffer (Thermo Scientific, Rockford, IL, USA). For B-A experiments, 400 µL of supplemented HBSS was added to the apical side and 1250 µL of the compound (10 µM) was added to the basolateral side. A sample of 50 µL was removed immediately from the basolateral compartment at time point zero. After 15 and 30 min, samples were taken from the apical compartment. After 60 min, samples were taken similarly as in A-B experiments. The sampled medium and cell lysates were stored at −20 °C till the day of the liquid chromatography–mass spectrometry (LC–MS/MS) analysis. All experiments were run in duplicate. The compounds were quantified with LC–MS/MS as described in Sect. "LC–MS/MS analysis".
(§3) Before chemical analysis, cell lysates were two times diluted in ice-cold methanol and centrifuged at 15,000 rpm at 4 °C. The supernatant was then injected into the LC–MS/MS system. Sampled buffer from donor compartments was diluted 40 times in buffer and samples from the receiver compartment were analysed undiluted. Standards were prepared in the same assay buffer to quantify the amount of compound in medium samples. For quantification of compounds in cell lysates, standards were prepared in a mixture of 50% RIPA buffer and 50% methanol.
(§4) All data are presented as mean ± SD.
(§5) For the < Tsi > a value of 3.32 h was used (Grandoni et al. [2019]).

For another series, the system named is Caco-2 cells. The series can be described thus: in vitro. To be noted: scaled from corrected Caco-2 Papp A-B, human. Here is the method: as §1, §2, §3, §4, §5
Series [1] in a line: In vitro hepatic clearance by human liver S9 (compound depletion). It counts as in vitro ADME. Here is the method: In vitro intrinsic hepatic clearance (CLint) values of the phenethylamine analogues were determined in experiments with pooled human liver S9 (HLS9; Corning, Woburn, MA, USA and Gibco, USA), by measuring the rate of compound depletion. Stocks of 1 mM PEA compounds were prepared in DMSO and stocks of 10 mg/mL alamethicin were prepared in methanol. The final incubation mixtures consisted of 1 µM of PEA compound (0.1% DMSO) in 100 mM potassium phosphate buffer with 5 mM magnesium chloride (pH 7.4) supplemented with 0.025 mg/mL alamethicin (0.25% methanol) and 0.1–2 mg/mL HLS9. […] Incubation mixtures were first pre-incubated at 37 °C in a shaking incubator at 300 rpm for 5 min. After 5 min, the reaction was initiated by adding a co-factor mix in supplemented buffer with final concentrations of 3 mM nicotinamide adenine dinucleotide phosphate (NADPH; for oxidation, reduction and hydrolysis), 5 mM uridine diphosphate glucuronic acid (UDPGA; for glucuronidation), 0.2 mM adenosine 3’-phosphate 5’-phosphosulfate lithium salt hydrate (PAPS; for sulfation) and 0.2 mM S-(5’-Adenosyl)-L-methionine p-toluenesulfonate salt (SAM; for methylation). The final incubation volume was 100 µL and incubations were performed in 1.5 mL Safe-Lock Eppendorf tubes (Eppendorf) in a shaking incubator (300 rpm) at 37 °C (Eppendorf Thermomixer). Incubations were terminated by adding 100 µL ice-cold acetonitrile after, 0, 2.5, 5, 10, 20, 40 and 60 min. Then, samples were vortexed, put on ice and stored at -20 °C until the day of the LC–MS/MS analysis. Controls of incubation mixtures without HLS9 or mixtures without co-factors were also included. Two independent experiments, both in duplicate, were performed on different days. On the day of the LC–MS/MS analysis, samples were thawed and centrifuged at 15,000 rpm for 10 min. The supernatant was collected in glass insert vials for LC injection (BGB Analytik, Harderwijk, The Netherlands). Details on the methods of the LC–MS/MS analysis are described in Sect. "LC–MS/MS analysis". After determining the PEA (analogue) amount at the different time points, the CLint was calculated. The natural logarithm of compound concentrations was plotted against time and the slope of this curve represented the elimination rate constant k (in 1/min). The half-life (t1/2 in minutes) was calculated by: ln (2)/k (in 1/min). The volume of incubation (V) in µL/mg protein was determined by: 1000 / HLS9 concentration (in mg/mL). Finally, CLint could be calculated by: CLintμL/min/mg protein=VμL/mg protein∗ln2/t1/2min.
The fraction unbound in these in vitro liver clearance incubations was calculated with the method of (Hallifax and Houston [2006]) in which unspecific binding in HLS9 incubations was assumed to be the same as in liver microsomal incubations. The in vitro obtained HLS9 CLint values were corrected for protein binding in the HLS9 incubation and were scaled to a whole liver by using a scaling factor of 121 mg HLS9/g liver (Houston and Galetin [2008]).

A further series relates to ADRα1A. The series can be described thus: PBK modelling-based reverse dosimetry of in vitro EC50 to ED50, ADRα1A. To be noted: predicted human oral ED50 from in vitro EC50 (Pinckaers et al. [2024]) and modelled Cmax plasma venous. From the text:
(§6) The in vitro effect concentrations (EC50), for activation of the α1A, α1B, α1D, α2A, α2B, β1 and β2 ADR activation and the activation of TAAR1, were obtained from our previous study (Pinckaers et al. [2024]).

The test system of another series is ADRα1B. The series can be described thus: PBK modelling-based reverse dosimetry of in vitro EC50 to ED50, ADRα1B. As to conditions: predicted human oral ED50 from in vitro EC50 (Pinckaers et al. [2024]) and modelled Cmax plasma venous.
From the text: as §6

The test system of another series is ADRα1D. The series can be described thus: PBK modelling-based reverse dosimetry of in vitro EC50 to ED50, ADRα1D. As to conditions: predicted human oral ED50 from in vitro EC50 (Pinckaers et al. [2024]) and modelled Cmax plasma venous.
From the text: as §6

The next series deals with ADRα2A. The series can be described thus: PBK modelling-based reverse dosimetry of in vitro EC50 to ED50, ADRα2A. To be noted: predicted human oral ED50 from in vitro EC50 (Pinckaers et al. [2024]) and modelled Cmax plasma venous.
From the text: as §6

In the next series the test system is ADRβ2. The series can be described thus: PBK modelling-based reverse dosimetry of in vitro EC50 to ED50, ADRβ2. To be noted: predicted human oral ED50 from in vitro EC50 (Pinckaers et al. [2024]) and modelled Cmax plasma venous.
From the text: as §6

In another series the test system is TAAR1. The series can be described thus: PBK modelling-based reverse dosimetry of in vitro EC50 to ED50, TAAR1. Also on record: species or system human. To be noted: predicted human oral ED50 from in vitro EC50 (Pinckaers et al. [2024]) and modelled Cmax plasma venous.
From the text: as §6

Setting [2] is: Caco-2, pH 7.4, Papp A-B, Caco-2, apical to basolateral, 10 µM, HBSS pH 7.4, mean ± SD, duplicate.

Read-outs that look alike come from different tables or passages of the source.

`COCCc1ccc(OCC(O)CNC(C)C)cc1` (centres unmarked) [Metoprolol, metoprolol, reference compound] had a Papp B→A at 60 min, 10 µM in the series “in vitro” of 9.25 ± 0.17 ×10⁻⁶ cm/s. The Papp A→B at 60 min, 10 µM in the series “in vitro” (setting [2]) came out at 11.2 ± 0.197 ×10⁻⁶ cm/s.

Turning to `NCC(O)c1ccc(O)cc1` (centres unmarked) [p-Octopamine, octopamine], the Papp B→A at 60 min, 10 µM in “in vitro” was 0.117 ± 0.0171 ×10⁻⁶ cm/s. In addition, the Papp A→B at 60 min, 10 µM in the series “in vitro” (Caco-2, pH 7.4, Papp A-B corrected, corrected for the difference between Papp A-B of metoprolol in this study and in literature) came to 0.584 ×10⁻⁶ cm/s; in the series “in vitro” (setting [2]) it was 0.164 ± 0.0701 ×10⁻⁶ cm/s. For the same compound, the recovery at 60 min, 10 µM in “in vitro” (Caco-2, pH 7.4, Recovery (A-B), Caco-2, A-B experiments) came to 98.9 ± 1.77%; in the series “in vitro” (Caco-2, pH 7.4, Recovery (B-A), Caco-2, B-A experiments), 109 ± 15%. Also, the “fa (fraction absorbed)” value in the series with Caco-2 cells came to 0.947. In addition, the “ka (absorption rate constant)” value in the series with Caco-2 cells came to 0.395 h⁻¹. The “Predicted intrinsic hepatic metabolic clearance CLmet” value in series [1] (CLint,u scaled to a whole liver, 121 mg HLS9/g liver, human) is 75.4 L/h. In addition, the “metabolism in incubations without co-factor mix” value in series [1] (HLS9 without co-factor mix) is on record as “metabolized in incubations without co-factor mix”. Moreover, the k el at 1 µM in [1] (human, pH 7.4) is 0.000203 s⁻¹. Also, the microsomal CLint at 1 µM in [1] (human, s9, pH 7.4, CLint app corrected for unspecific protein (HLS9) binding, read-out: In vitro CLint,u) amounted to 7.06 µL/min/mg; in series [1] (human, s9, pH 7.4, human liver S9 with co-factor mix (NADPH, UDPGA, PAPS, SAM), 1 µM, read-out: In vitro CLint app), 6.05 µL/min/mg. Also, the “ADRα1A ED50” value in the series with ADRα1A was 15.7 mg/kg bw. Further, the “ADRα1B ED50” value in the series on ADRα1B is 5.58 mg/kg bw. The “ADRα1D ED50” value in the series on ADRα1D was 1.72 mg/kg bw. In addition, the “ADRα2A ED50” value with ADRα2A is “– (compounds with a dash (-) did not activate the receptors in vitro at concentrations ≤ 300 µM)”. In addition, the “ADRβ2 ED50” value in the series with ADRβ2 is “– (compounds with a dash (-) did not activate the receptors in vitro at concentrations ≤ 300 µM)”. In addition, in the series on TAAR1, the “TAAR1 ED50” value is reported as 65.8 mg/kg bw.
